Measured values as given in ChEMBL document CHEMBL5346882 (Eur J Med Chem, 2023).
pIC50: −log10 of the molar value.

Tests used:
Cholinesterase = Cholinesterase (Homo sapiens, UniProt P06276); assay: Inhibition of human recombinant BuChE using butyrylthiocholine iodide as substrate preincubated for 5 mins followed by substrate addition and measured every 2 mins by DTNB-reagent based Ellman's method
Beta-secretase 1 = Beta-secretase 1 (Homo sapiens, UniProt P56817); assay: Inhibition of human recombinant BACE-1 expressed in baculovirus using swedish mutant of APP based Rh-EVNLDAEFK-quencher as substrate incubated for 60 mins by FRET assay
[1] = biological target: Sodium- and chloride-dependent GABA transporter 1 (Mus musculus, UniProt P31648); assay: Inhibition of mouse GAT1 expressed in HEK293 cells assessed as reduction in [3H]-GABA uptake incubated for 10 mins; type: cell-based
GABA transporter 4 = biological target: T1, GABA transporter 4 (Mus musculus, UniProt P31650); assay: Inhibition of mouse GAT4 expressed in HEK293 cells assessed as reduction in [3H]-GABA uptake incubated for 10 mins; type: cell-based
T1 sequence (P31650 whole entry): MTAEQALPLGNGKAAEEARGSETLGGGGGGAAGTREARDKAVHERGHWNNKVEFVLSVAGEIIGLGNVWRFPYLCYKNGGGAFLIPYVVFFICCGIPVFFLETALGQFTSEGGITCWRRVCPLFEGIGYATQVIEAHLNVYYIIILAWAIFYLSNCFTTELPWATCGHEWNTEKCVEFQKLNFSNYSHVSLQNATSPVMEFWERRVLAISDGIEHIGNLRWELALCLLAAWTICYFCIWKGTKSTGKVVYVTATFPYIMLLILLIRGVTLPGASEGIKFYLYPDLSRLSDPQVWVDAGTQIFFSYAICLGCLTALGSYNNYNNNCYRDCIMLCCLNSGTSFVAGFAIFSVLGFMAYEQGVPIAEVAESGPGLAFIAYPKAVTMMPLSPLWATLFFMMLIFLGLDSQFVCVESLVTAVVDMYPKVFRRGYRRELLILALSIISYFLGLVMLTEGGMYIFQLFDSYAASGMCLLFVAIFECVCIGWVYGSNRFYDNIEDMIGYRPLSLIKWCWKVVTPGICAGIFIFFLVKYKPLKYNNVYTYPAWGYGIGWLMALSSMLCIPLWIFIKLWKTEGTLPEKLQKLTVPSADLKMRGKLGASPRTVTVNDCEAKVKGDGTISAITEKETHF

[2] = Metabolic stability in human liver microsomes assessed as parent compound remaining incubated for 120 mins in presence of NADPH regeneration system by UPLC/MS analysis; type: ADME, Microsome; conditions: read-out: Stability
[3] = Drug metabolism in human liver microsomes assessed as N-dealkylation mediated metabolite formation; type: ADME, Microsome
Cytochrome P450 3A4 = Cytochrome P450 3A4 (Homo sapiens, UniProt P08684); assay: Inhibition of CYP3A4 (unknown origin) at 10 uM; type: ADME
Cytochrome P450 2D6 = Cytochrome P450 2D6 (Homo sapiens, UniProt P10635); assay: Inhibition of CYP2D6 (unknown origin) at 10 uM; type: ADME
[4] = Cmax in CD-1 mouse plasma at 10 mg/kg, ip administered as single dose and measured after 15 to 240 mins by LC-MS/MS analysis; type: ADME, organism-based; parameters: dose 10 mg/kg, time 15-240 min, route ip
[5] = Cmax in CD-1 mouse plasma at 30 mg/kg, ip administered as single dose and measured after 15 to 240 mins by LC-MS/MS analysis; type: ADME, organism-based; parameters: time upper 240 min, time lower 15 min, dose 30 mg/kg, route ip
[6] = Cmax in CD-1 mouse brain at 10 mg/kg, ip administered as single dose and measured after 15 to 240 mins by LC-MS/MS analysis; type: ADME, organism-based; parameters: time 15-240 min, dose 10 mg/kg, route ip
[7] = Cmax in CD-1 mouse brain at 30 mg/kg, ip administered as single dose and measured after 15 to 240 mins by LC-MS/MS analysis; type: ADME, organism-based; parameters: time upper 240 min, time lower 15 min, dose 30 mg/kg, route ip
[8] = Tmax in CD-1 mouse plasma at 10 mg/kg, ip administered as single dose and measured after 15 to 240 mins by LC-MS/MS analysis; type: ADME, organism-based; conditions: time 15-240 min
[9] = Tmax in CD-1 mouse plasma at 30 mg/kg, ip administered as single dose and measured after 15 to 240 mins by LC-MS/MS analysis; type: ADME, organism-based; conditions: time 15-240 min
[10] = Tmax in CD-1 mouse brain at 10 mg/kg, ip administered as single dose and measured after 15 to 240 mins by LC-MS/MS analysis; type: ADME, organism-based; conditions: time 15-240 min
[11] = Tmax in CD-1 mouse brain at 30 mg/kg, ip administered as single dose and measured after 15 to 240 mins by LC-MS/MS analysis; type: ADME, organism-based; conditions: time 15-240 min
[12] = Half life in CD-1 mouse plasma at 30 mg/kg, ip administered as single dose and measured after 15 to 240 mins by LC-MS/MS analysis; type: ADME, organism-based; conditions: time 15-240 min
[13] = AUC (0 to t) in CD-1 mouse plasma at 10 mg/kg, ip administered as single dose and measured after 15 to 240 mins by LC-MS/MS analysis; type: ADME, organism-based; parameters: time upper 240 min, dose 10 mg/kg, time lower 15 min, route ip
[14] = AUC (0 to t) in CD-1 mouse plasma at 30 mg/kg, ip administered as single dose and measured after 15 to 240 mins by LC-MS/MS analysis; type: ADME, organism-based; parameters: dose 30 mg/kg, time 15-240 min, route ip
[15] = AUC (0 to t) in CD-1 mouse brain at 10 mg/kg, ip administered as single dose and measured after 15 to 240 mins by LC-MS/MS analysis; type: ADME, organism-based; parameters: time 15-240 min, dose 10 mg/kg, route ip
[16] = AUC (0 to t) in CD-1 mouse brain at 30 mg/kg, ip administered as single dose and measured after 15 to 240 mins by LC-MS/MS analysis; type: ADME, organism-based; parameters: time upper 240 min, dose 30 mg/kg, time lower 15 min, route ip
[17] = MRT in CD-1 mouse plasma at 10 mg/kg, ip administered as single dose and measured after 15 to 240 mins by LC-MS/MS analysis; type: ADME, organism-based; conditions: time 15-240 min
[18] = MRT in CD-1 mouse plasma at 30 mg/kg, ip administered as single dose and measured after 15 to 240 mins by LC-MS/MS analysis; type: ADME, organism-based; conditions: time 15-240 min
[19] = MRT in CD-1 mouse brain at 10 mg/kg, ip administered as single dose and measured after 15 to 240 mins by LC-MS/MS analysis; type: ADME, organism-based; conditions: time 15-240 min
[20] = MRT in CD-1 mouse brain at 30 mg/kg, ip administered as single dose and measured after 15 to 240 mins by LC-MS/MS analysis; type: ADME, organism-based; conditions: time 15-240 min
[21] = Half life in CD-1 mouse plasma at 10 mg/kg, ip administered as single dose and measured after 15 to 240 mins by LC-MS/MS analysis; type: ADME, organism-based; conditions: time 15-240 min
[22] = Half life in CD-1 mouse brain at 10 mg/kg, ip administered as single dose and measured after 15 to 240 mins by LC-MS/MS analysis; type: ADME, organism-based; conditions: time 15-240 min
[23] = Half life in CD-1 mouse brain at 30 mg/kg, ip administered as single dose and measured after 15 to 240 mins by LC-MS/MS analysis; type: ADME, organism-based; conditions: time 15-240 min
[24] = Apparent clearance in CD-1 mouse plasma at 10 mg/kg, ip administered as single dose and measured after 15 to 240 mins by LC-MS/MS analysis; type: ADME, organism-based; conditions: time 15-240 min, read-out: CL(app)
[25] = Apparent clearance in CD-1 mouse plasma at 30 mg/kg, ip administered as single dose and measured after 15 to 240 mins by LC-MS/MS analysis; type: ADME, organism-based; conditions: time 15-240 min, read-out: CL(app)
[26] = Apparent volume of distribution in CD-1 mouse plasma at 10 mg/kg, ip administered as single dose and measured after 15 to 240 mins by LC-MS/MS analysis; type: ADME, organism-based; conditions: in vivo, time 15-240 min
[27] = Apparent volume of distribution in CD-1 mouse plasma at 30 mg/kg, ip administered as single dose and measured after 15 to 240 mins by LC-MS/MS analysis; type: ADME, organism-based; conditions: in vivo, time 15-240 min
[28] = biological target: ATP-dependent translocase ABCB1 (Homo sapiens, UniProt P08183); assay: Substrate activity at P-gp membranes (unknown origin) at 100 uM incubated for 40 mins by luminescent glo assay relative to control; type: ADME, cell membranes, Membrane
[29] = Ratio of brain to plasma partition coefficient in CD-1 mouse at 10 mg/kg, ip administered as single dose and measured after 15 to 240 mins by LC-MS/MS analysis; type: ADME, organism-based; conditions: time 15-240 min, read-out: BPR
[30] = Ratio of brain to plasma partition coefficient in CD-1 mouse at 30 mg/kg, ip administered as single dose and measured after 15 to 240 mins by LC-MS/MS analysis; type: ADME, organism-based; conditions: time 15-240 min, read-out: BPR
cells [31] = conditions: Mus musculus, HEK293
Description: Inhibition of mouse GAT2 expressed in HEK293 cells assessed as reduction in [3H]-GABA uptake incubated for 10 mins

cells [32] = conditions: Mus musculus, HEK293; remark: listed apart in the source
Description: Inhibition of mouse GAT3 expressed in HEK293 cells assessed as reduction in [3H]-GABA uptake incubated for 10 mins

Sequence of Cholinesterase (P06276 whole entry): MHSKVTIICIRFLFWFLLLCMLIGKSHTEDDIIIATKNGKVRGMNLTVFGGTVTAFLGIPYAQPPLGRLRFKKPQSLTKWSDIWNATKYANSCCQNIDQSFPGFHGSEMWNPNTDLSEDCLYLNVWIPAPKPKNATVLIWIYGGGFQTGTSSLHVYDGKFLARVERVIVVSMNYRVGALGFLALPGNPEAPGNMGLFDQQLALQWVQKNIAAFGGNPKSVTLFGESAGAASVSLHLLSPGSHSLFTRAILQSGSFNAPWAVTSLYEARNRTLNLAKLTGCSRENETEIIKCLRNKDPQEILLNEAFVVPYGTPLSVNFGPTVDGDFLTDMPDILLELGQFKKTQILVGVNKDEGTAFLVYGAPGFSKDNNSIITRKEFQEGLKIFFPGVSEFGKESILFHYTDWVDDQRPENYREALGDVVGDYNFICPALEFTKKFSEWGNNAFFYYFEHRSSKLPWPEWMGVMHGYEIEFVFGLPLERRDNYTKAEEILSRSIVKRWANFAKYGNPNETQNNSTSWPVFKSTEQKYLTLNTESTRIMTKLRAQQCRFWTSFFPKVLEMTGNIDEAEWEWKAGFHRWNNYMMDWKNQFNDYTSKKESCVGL
Sequence of Beta-secretase 1 (P56817 whole entry): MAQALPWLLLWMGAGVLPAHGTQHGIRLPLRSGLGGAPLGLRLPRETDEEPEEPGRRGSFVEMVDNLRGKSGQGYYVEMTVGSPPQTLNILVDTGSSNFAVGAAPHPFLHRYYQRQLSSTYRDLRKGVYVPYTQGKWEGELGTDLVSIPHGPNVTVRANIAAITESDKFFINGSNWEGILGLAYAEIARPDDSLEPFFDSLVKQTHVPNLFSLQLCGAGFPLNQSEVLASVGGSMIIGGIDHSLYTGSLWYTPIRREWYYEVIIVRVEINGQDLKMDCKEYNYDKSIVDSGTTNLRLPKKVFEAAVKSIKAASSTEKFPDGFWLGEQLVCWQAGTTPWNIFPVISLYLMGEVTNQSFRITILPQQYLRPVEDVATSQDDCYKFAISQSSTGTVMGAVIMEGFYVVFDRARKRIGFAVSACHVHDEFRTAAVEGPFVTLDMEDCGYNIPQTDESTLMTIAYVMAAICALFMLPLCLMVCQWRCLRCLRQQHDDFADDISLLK
Sequence of Cytochrome P450 3A4 (P08684 whole entry): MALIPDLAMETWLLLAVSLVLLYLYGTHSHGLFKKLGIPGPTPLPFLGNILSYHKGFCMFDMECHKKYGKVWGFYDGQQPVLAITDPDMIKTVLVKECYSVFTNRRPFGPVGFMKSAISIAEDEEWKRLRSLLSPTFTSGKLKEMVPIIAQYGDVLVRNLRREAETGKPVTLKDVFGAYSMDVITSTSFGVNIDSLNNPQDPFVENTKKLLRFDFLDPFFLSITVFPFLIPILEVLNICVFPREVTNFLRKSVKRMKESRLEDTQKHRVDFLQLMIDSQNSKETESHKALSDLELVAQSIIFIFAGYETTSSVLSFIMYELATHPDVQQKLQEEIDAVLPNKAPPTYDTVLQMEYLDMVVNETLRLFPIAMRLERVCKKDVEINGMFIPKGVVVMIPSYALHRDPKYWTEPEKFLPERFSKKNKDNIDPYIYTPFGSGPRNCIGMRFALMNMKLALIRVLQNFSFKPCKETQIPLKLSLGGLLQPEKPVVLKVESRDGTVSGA
Sequence of ATP-dependent translocase ABCB1 (P08183 whole entry): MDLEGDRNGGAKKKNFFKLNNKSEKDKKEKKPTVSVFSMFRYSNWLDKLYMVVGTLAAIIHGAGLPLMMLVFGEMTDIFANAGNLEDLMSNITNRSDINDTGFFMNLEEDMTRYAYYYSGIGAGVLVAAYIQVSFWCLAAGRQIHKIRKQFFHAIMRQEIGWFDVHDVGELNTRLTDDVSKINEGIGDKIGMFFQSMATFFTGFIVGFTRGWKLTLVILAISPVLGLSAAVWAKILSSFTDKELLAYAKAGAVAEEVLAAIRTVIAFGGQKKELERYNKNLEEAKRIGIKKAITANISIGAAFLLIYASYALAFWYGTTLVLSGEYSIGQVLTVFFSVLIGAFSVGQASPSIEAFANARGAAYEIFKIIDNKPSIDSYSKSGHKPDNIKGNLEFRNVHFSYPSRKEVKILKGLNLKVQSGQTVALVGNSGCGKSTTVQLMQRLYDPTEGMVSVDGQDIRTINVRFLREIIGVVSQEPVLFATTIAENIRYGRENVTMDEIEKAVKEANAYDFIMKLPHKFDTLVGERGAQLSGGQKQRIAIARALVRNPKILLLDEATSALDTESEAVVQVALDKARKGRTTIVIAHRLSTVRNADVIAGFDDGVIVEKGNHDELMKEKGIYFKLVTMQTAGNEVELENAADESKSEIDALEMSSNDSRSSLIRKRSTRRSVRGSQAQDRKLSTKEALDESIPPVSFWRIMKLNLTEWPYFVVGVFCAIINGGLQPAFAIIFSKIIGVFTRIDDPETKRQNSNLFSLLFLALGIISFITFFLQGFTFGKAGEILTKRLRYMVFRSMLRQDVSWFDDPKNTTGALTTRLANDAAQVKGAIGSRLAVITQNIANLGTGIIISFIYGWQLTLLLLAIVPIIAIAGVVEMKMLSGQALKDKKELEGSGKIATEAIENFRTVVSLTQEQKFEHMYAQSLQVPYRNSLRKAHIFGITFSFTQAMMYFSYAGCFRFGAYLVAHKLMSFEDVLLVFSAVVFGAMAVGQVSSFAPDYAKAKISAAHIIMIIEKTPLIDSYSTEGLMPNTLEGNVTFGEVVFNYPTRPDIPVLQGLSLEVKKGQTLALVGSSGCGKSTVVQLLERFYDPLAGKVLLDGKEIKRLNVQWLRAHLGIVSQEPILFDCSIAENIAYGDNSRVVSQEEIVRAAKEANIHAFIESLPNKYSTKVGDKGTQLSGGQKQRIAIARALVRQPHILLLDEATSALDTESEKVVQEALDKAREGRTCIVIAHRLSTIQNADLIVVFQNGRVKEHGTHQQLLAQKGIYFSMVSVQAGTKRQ
Sequence of Cytochrome P450 2D6 (P10635 whole entry): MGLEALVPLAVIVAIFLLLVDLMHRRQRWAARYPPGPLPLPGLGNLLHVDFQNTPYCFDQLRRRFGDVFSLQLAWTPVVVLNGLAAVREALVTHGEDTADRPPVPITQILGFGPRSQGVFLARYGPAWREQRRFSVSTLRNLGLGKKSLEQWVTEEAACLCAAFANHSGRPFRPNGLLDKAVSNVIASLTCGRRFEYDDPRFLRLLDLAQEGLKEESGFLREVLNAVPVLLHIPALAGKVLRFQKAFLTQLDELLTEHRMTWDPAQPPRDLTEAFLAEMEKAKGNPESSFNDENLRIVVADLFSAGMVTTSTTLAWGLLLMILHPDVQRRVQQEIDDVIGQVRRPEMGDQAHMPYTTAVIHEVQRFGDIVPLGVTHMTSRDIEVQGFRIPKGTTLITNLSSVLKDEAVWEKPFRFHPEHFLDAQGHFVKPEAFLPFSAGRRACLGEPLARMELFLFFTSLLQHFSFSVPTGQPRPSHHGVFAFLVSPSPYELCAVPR

CC(C)(C)c1cccc(CNCC(O)CNCCC(c2ccccc2)c2ccccc2)c1 (configuration not stated)
pIC50 (Cholinesterase): 5.22
pIC50 (Beta-secretase 1): 4.39

O=C(CC(c1ccccc1)c1ccccc1)NCC(O)CNCC1CCCCC1 (configuration not stated)
pIC50 [1]: < 5.00
pIC50 (GABA transporter 4): < 5.00
remaining at 2 h [2]: > 80%
Drug metabolism [3]: Metabolite_Detected
inhibition (INH) (Cytochrome P450 3A4): Active
inhibition (INH) (Cytochrome P450 2D6): Active
Cmax [4]: 192 ng/mL
Cmax [5]: 312 ng/mL
Cmax [6]: 27.4 ng/mL
Cmax [7]: 44.3 ng/mL
Tmax [8]: 0.25 h
Tmax [9]: 0.25 h
Tmax [10]: 0.25 h
Tmax [11]: 0.25 h
half-life [12]: 0.912 h
AUC(0-t) [13]: 247 ng·h/mL
AUC(0-t) [14]: 441 ng·h/mL
AUC(0-t) [15]: 85.1 ng·h/mL
AUC(0-t) [16]: 122 ng·h/mL
MRT [17]: 1.24 h
MRT [18]: 1.03 h
MRT [19]: 1.88 h
MRT [20]: 1.8 h
half-life [21]: 1.6 h
half-life [22]: 5.84 h
half-life [23]: 4.24 h
CL/F [24]: 577 mL/min/kg
CL/F [25]: 1070 mL/min/kg
Vz [26]: 80 L/kg
Vz [27]: 84.4 L/kg
Activity [28]: <= 190%
Kp [29]: 0.34
Kp [30]: 0.28
pIC50 (cells [31]): < 5.00
pIC50 (cells [32]): < 5.00
